Earlier results, collected in patent publication US20080241117A1, “Oral Care Compositions Containing a Mixed Tocopherol Component” (priority 2007, published 2008).
Read-outs that look alike come from different tables or passages of the source.

Experiments:
[1] = system: prostaglandin E2 in gingival crevicular fluid; conditions: applied topically in rinse form
[2] = system: gingivitis; conditions: applied topically in toothpaste; humans
[3] = system: gingivitis; conditions: applied topically in toothpaste; primates
[4] = applied topically in toothpaste

penetration of gum tissue [4] | Compound | level of prostaglandin E2 in gingival crevicular fluid [1] | effect on gingivitis [2] | effect on gingivitis [3]
 | tocopherol [vitamin E] | reduced level of prostaglandin E2 |  | 
penetrates gum tissue | Cc1c(C)c2c(c(C)c1O)CC[C@@](C)(CCC[C@H](C)CCC[C@H](C)CCCC(C)C)O2 [alpha tocopherol] |  | fails to provide an effect on gingivitis | fails to provide an effect on gingivitis
